Read-outs that look alike come from different tables or passages of the source.
Legend:
[1] = U.S. Pat. No. 8,106,183 / WO2012149196, cited from earlier work
[2] = HPLC stability of solid forms stored at 80° C. in inert atmosphere; settings: for HPLC stability data (chromatographic purity): 80° C. in inert atmosphere
[3] = Thermal treatment of polymorphic form A at 190-200° C. (prior-art route to amorphous form); assay type: physicochemical; settings: thermal treatment at 190-200° C.
Experimental: In U.S. Pat. No. 8,106,183 the method of preparation of an amorphous form of Regadenoson is described by heating polymorphic form A at 200° C.; this solid state, differently by polymorphic forms A-C, was not described by the authors by an X-ray diffraction spectrum in order to identify possible characteristic halo-peaks (broad peaks). This amorphous form was prepared according to U.S. Pat. No. 8,106,183 by heating the polymorphic form A over the melting point value of this substance (that for polymorphic form A is 194.5° C.). This method is not industrially applicable and leads to the formation of several side products. […] To the best of our knowledge, this is the only described method for the preparation of amorphous Regadenoson.

[4] = HPLC stability of solid forms stored at 90% RH and 20-25° C.; settings: for HPLC stability data (chromatographic purity): 90% RH and 20-25° C.
[5] = not given; remark: listed apart in the source

For `CNC(=O)c1cnn(-c2nc(N)c3ncn([C@@H]4O[C@H](CO)[C@@H](O)[C@H]4O)c3n2)c1` [Form A, (1-{9-[(4S,2R,3R,5R)-3,4-dihydroxy-5-(hydroxymethyl)oxolan-2-yl]-6-aminopurin-2yl}pyrazol-4-yl)-N-methylcarboxamide, reference compound], the “stability of the solid form as described in the literature” value (“stability of the solid form as described” below) ([1]; listed as Regadenoson Form A) is given as “more stable than polymorphs B and C”, the HPLC stability data (chromatographic purity) ([2]; time 0 hours) is given as 99.5% and the HPLC stability data (chromatographic purity) ([2]; time 72 hours) is given as 99.5%. For the same molecule, the HPLC stability data (chromatographic purity) ([2]; time 96 hours) was 99.5%, the “decrease of chromatographic purity” value [3] was “about 30%” and the “change in the color of the sample” value ([3]; form A is white before) was “the color changes to brown”. It also gave an HPLC stability data (chromatographic purity) ([4]; time 0 hours) of 99.5% and an HPLC stability data (chromatographic purity) ([4]; time 96 hours) of 99.5%.

In the case of `CNC(=O)c1cnn(-c2nc(N)c3ncn([C@@H]4O[C@H](CO)[C@@H](O)[C@H]4O)c3n2)c1` [Form D], the “stability of the solid form as described” value [1] is listed as “stable under inert conditions”.

Molecule `CNC(=O)c1cnn(-c2nc(N)c3ncn([C@@H]4O[C@H](CO)[C@@H](O)[C@H]4O)c3n2)c1` [Form E] has an HPLC stability data (chromatographic purity) (0 h) of 99.6%, an HPLC stability data (chromatographic purity) (96 h) of 99.7% and an HPLC stability data (chromatographic purity) ([5]; 0 h) of 99.6%. It also gave an HPLC stability data (chromatographic purity) ([5]; 72 h) of 99.4% and an HPLC stability data (chromatographic purity) ([5]; 96 h) of 99.6%.

For `CNC(=O)c1cnn(-c2nc(N)c3ncn([C@@H]4O[C@H](CO)[C@@H](O)[C@H]4O)c3n2)c1` [Form F, (1-{9-[(4S,2R,3R,5R)-3,4-dihydroxy-5-(hydroxymethyl)oxolan-2-yl]-6-aminopurin-2yl}pyrazol-4-yl)-N-methylcarboxamide], the HPLC stability data (chromatographic purity) (0 h) was 99.8%, the HPLC stability data (chromatographic purity) (96 h) was 99.8% and the HPLC stability data (chromatographic purity) ([5]; 0 h) was 99.8%. It also gave an HPLC stability data (chromatographic purity) ([5]; 72 h) of 99.7% and an HPLC stability data (chromatographic purity) ([5]; 96 h) of 99.7%.

`CNC(=O)c1cnn(-c2nc(N)c3ncn([C@@H]4O[C@H](CO)[C@@H](O)[C@H]4O)c3n2)c1` [Form G, (1-{9-[(4S,2R,3R,5R)-3,4-dihydroxy-5-(hydroxymethyl)oxolan-2-yl]-6-aminopurin-2yl}pyrazol-4-yl)-N-methylcarboxamide] gave an HPLC stability data (chromatographic purity) (0 h) of 99.8%, an HPLC stability data (chromatographic purity) (96 h) of 99.8% and an HPLC stability data (chromatographic purity) ([5]; 0 h) of 99.8%. It also gave an HPLC stability data (chromatographic purity) ([5]; 72 h) of 99.8% and an HPLC stability data (chromatographic purity) ([5]; 96 h) of 99.8%.

`CNC(=O)c1cnn(-c2nc(N)c3ncn([C@@H]4O[C@H](CO)[C@@H](O)[C@H]4O)c3n2)c1` [Halo Amorphous, (1-{9-[(4S,2R,3R,5R)-3,4-dihydroxy-5-(hydroxymethyl)oxolan-2-yl]-6-aminopurin-2yl}pyrazol-4-yl)-N-methylcarboxamide] showed an HPLC stability data (chromatographic purity) ([2]; time 0 hours) of 99.7%, an HPLC stability data (chromatographic purity) ([2]; time 72 hours) of 99.7% and an HPLC stability data (chromatographic purity) ([2]; time 96 hours) of 99.7%. The stability to heating ([2]; 80° C., protected atmosphere / dry conditions, up to 96 hours) was “stable to the heating”, the “formation of degradation products” value ([2]; dry conditions, 80° C. up to 96 hours) was “does not give origin to degradation products” and the HPLC stability data (chromatographic purity) ([4]; time 0 hours) was 99.7%. For the same molecule, the HPLC stability data (chromatographic purity) ([4]; time 96 hours) was 99.7% and the “formation of degradation products” value ([4]; exposed to moisture, 25° C./90% RH up to 96 hours) was “does not give origin to degradation products”.

In the case of `CNC(=O)c1cnn(-c2nc(N)c3ncn([C@@H]4O[C@H](CO)[C@@H](O)[C@H]4O)c3n2)c1` [Polymorph C], the “stability of the solid form as described” value [1] is given as “unstable at high temperatures”.
